In one assay the target is T1, GLUT1 (Homo sapiens, UniProt P11166).
T1 sequence (P11166 1-492): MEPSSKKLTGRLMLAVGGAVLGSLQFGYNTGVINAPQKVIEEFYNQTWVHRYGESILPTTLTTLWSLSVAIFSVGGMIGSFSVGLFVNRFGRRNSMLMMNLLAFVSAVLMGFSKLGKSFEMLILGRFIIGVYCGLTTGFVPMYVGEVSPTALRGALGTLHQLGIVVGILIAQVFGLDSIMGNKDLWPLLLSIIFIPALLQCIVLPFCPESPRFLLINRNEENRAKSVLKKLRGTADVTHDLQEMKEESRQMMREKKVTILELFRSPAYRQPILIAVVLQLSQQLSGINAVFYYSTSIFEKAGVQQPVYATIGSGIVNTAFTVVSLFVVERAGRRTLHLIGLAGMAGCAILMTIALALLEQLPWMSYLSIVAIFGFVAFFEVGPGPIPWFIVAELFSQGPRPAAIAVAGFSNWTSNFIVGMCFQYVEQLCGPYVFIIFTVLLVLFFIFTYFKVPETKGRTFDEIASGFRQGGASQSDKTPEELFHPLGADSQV
Nature of the assay: Indirect measurement of GLUT1 activity by quantification of intracellular ATP levels (glucose induced ATP increase). Also on record: endogenous in cells; host or cells: DLD1 or CHO-K1. In kind it is cell-based. Particulars: DLD1 cells; 0.1 mM glucose, 1 μM Rotenone, 15 min; CellTiter-Glo ATP readout; IC50 values standardized to cytochalasin B IC50 values; read-out: IC50 regarding glucose induced ATP increase (GLUT1 inhibition). The text has this:
Indirect Measurement of GLUT1 and GLUT2 Activity by Quantification of Intracellular ATP Levels
It is well known that a combination of small-molecule inhibitors of mitochondrial electron transport chain and glucose catabolism synergistically suppress ATP production and impair cellular viability (Ulanovskaya et al., 2008, 2011; Liu, et al. 2001). We therefore used DLD1 or CHO-K1 cells in combination with an oxidative phosphorylation inhibitor to identify GLUT1 and GLUT2 inhibitors. Cell lines were maintained in DMEM medium supplemented with 10% FCS and 1% Penicillin-Streptomycin solution and 2% Glutamax. The cells were treated with trypsin and seeded into 384 plates at a density of 4000 cells/well. The cells were then cultured overnight in glucose free media containing 1% FCS to reduce intracellular ATP levels. […] The CellTiter-Glo® Luminescent Cell Viability Assay from Promega was then used to measure ATP Levels.
On the technique in general: ATP-based viability assays read luminescence as a measure of living cells.
Usually IC50 stands for the concentration needed to halve the response being measured. Take `Cc1ccc2nc(C(N)=O)cc(C(=O)Nc3c(C(F)(F)F)nn(Cc4ccc(C#N)cc4)c3C)c2c1` [Example 366, N^4-[1-(4-cyanobenzyl)-5-methyl-3-(trifluoromethyl)-1H-pyrazol-4-yl]-6-methylquinoline-2,4-dicarboxamide]: the IC50 was found to be 7 nM.

Staying with this assay, now noted: read-out: IC50 regarding glucose induced ATP increase (GLUT1 inhibition).
On to `Cc1c(NC(=O)c2cc(C(N)=O)nc3cc(F)c(Cl)cc23)c(C(C)C)nn1Cc1ccc(C#N)cc1` [Example 324, 6-chloro-N^4-[1-(4-cyanobenzyl)-3-isopropyl-5-methyl-1H-pyrazol-4-yl]-7-fluoroquinoline-2,4-dicarboxamide], for which the half-inhibitory concentration (IC50) amounted to 1.9 nM.

With `Cc1nn(Cc2ccc(S(C)(=O)=O)cc2)c(C)c1NC(=O)c1cc(C(F)(F)F)nc2ccc(Br)cc12` [Example 217, 6-bromo-N-{3,5-dimethyl-1-[4-(methylsulfonyl)benzyl]-1H-pyrazol-4-yl}-2-(trifluoromethyl)quinoline-4-carboxamide], the IC50 was determined as 3.2 nM.

Consider `Cc1nn(Cc2ccc(F)cc2)c(C)c1NC(=O)c1cc(C2CC2)nc2ccc(Cl)cc12` [Example 125, 6-chloro-2-cyclopropyl-N-[1-(4-fluorobenzyl)-3,5-dimethyl-1H-pyrazol-4-yl]quinoline-4-carboxamide], for which the half-maximal inhibitory concentration (IC50) turned out to be 2.5 nM.

For `Cc1ccc2nc(C)cc(C(=O)Nc3c(C(F)(F)F)nn(Cc4ccc(C#N)cc4)c3C)c2c1` [Example 188, N-[1-(4-cyanobenzyl)-5-methyl-3-(trifluoromethyl)-1H-pyrazol-4-yl]-2,6-dimethylquinoline-4-carboxamide], the concentration for half-maximal inhibition (IC50) stood at 161 nM.

`Cc1c(NC(=O)c2cc(C(F)(F)F)nc3ccc(Br)cc23)c(C(F)(F)F)nn1Cc1ccc(C(=O)N(C)C)cn1` [Example 1194]: the IC50 came out at 363 nM.

As to `Cc1nn(Cc2ccc(O)cc2)c(C)c1NC(=O)c1cc(C(F)(F)F)nc2c(Cl)cc(Cl)cc12` [Example 1048], the IC50 was 11.5 nM.

For the compound `Cc1c(NC(=O)c2cc(C(F)(F)F)nc3ccc(Br)cc23)c(C(N)=O)nn1Cc1ccc(F)cc1` [Example 1135], the IC50 was 98.1 nM.

`Cc1nn(CC2CCCCC2)c(C)c1NC(=O)c1cc(C(F)(F)F)nc2ccc(Br)cc12` [Example 170, 6-bromo-N-[1-(cyclohexylmethyl)-3,5-dimethyl-1H-pyrazol-4-yl]-2-(trifluoromethyl)quinoline-4-carboxamide]: the IC50 was determined as 54.4 nM.

For `COC(=O)c1coc(Cn2nc(C(F)(F)F)c(NC(=O)c3cc(C(N)=O)nc4cc(F)c(Cl)cc34)c2C)n1` [Example 1682], the concentration for half-maximal inhibition (IC50) was found to be 36.7 nM.

Take `C=Cc1ccc(Cn2nc(C)c(NC(=O)c3cc(C)nc4ccc(C)cc34)c2C)cc1` [Example 1097]: the 50% inhibitory concentration (IC50) came out at 41.3 nM.

In the case of `Cc1c(NC(=O)c2cc(C(F)(F)F)nc3ccc(Br)cc23)c(C(F)(F)F)nn1Cc1ccc(C(N)=O)cn1` [Example 1076], the IC50 turned out to be 22.7 nM.

`Cc1nn(Cc2ccc(F)cc2)c(C)c1NC(=O)c1cc(C(F)(F)F)nc2c(F)cccc12` [Example 85, 8-fluoro-N-[1-(4-fluorobenzyl)-3,5-dimethyl-1H-pyrazol-4-yl]-2-(trifluoromethyl)quinoline-4-carboxamide]: the concentration for half-maximal inhibition (IC50) was 257 nM.

As for `Cc1c(NC(=O)c2cc(C(N)=O)nc3ccc(N4CCN(C)CC4)cc23)c(C(F)(F)F)nn1Cc1ccc(C#N)cc1` [Example 1394], the IC50 came to 127 nM.

On to `Cc1nn(Cc2ccc(F)c(F)c2)c(C)c1NC(=O)c1cc(C(N)=O)nc2ccc(Br)cc12` [Example 1469], for which the half-inhibitory concentration (IC50) came to 5.5 nM.

In the case of `Cc1nn(Cc2ccc(C(=O)NCCCCO)cc2)c(C)c1NC(=O)c1cc(C(F)(F)F)nc2ccc(Br)cc12` [Example 1083], the IC50 turned out to be 29.4 nM.

As for `Cc1c(NC(=O)c2cc(C(N)=O)nc3cc(F)ccc23)c(C(F)(F)F)nn1Cc1cc(F)ccc1C#N` [Example 1653], the 50% inhibitory concentration (IC50) worked out at 266 nM.

On to `Cc1nn(Cc2ccc(C(=O)NCCC(C)O)cc2)c(C)c1NC(=O)c1cc(C(F)(F)F)nc2ccc(Br)cc12` (stereo not drawn) [Example 1211], for which the concentration for half-maximal inhibition (IC50) turned out to be 581 nM.

In the case of `Cc1nonc1Cn1nc(C)c(NC(=O)c2cc(C(F)(F)F)nc3ccc(Br)cc23)c1C` [Example 1520], the IC50 was determined as 747 nM.

With `Cc1nn(Cc2ccc(C(=O)N3CCC(CO)CC3)cc2)c(C)c1NC(=O)c1cc(C(F)(F)F)nc2ccc(Br)cc12` [Example 1099], the IC50 amounted to 41.9 nM.

As to `COc1cc(C(=O)Nc2c(C)nn(C(C)c3ccc(F)cc3)c2C)c2ccccc2n1` (stereo not drawn) [Example 1375], the half-inhibitory concentration (IC50) was determined as 15.1 nM.

As to `Cc1nn(Cc2ccc(C#N)cn2)c(C)c1NC(=O)c1cc(C(F)(F)F)nc2ccc(Br)cc12` [Example 353, 6-bromo-N-{1-[(5-cyanopyridin-2-yl)methyl]-3,5-dimethyl-1H-pyrazol-4-yl}-2-(trifluoromethyl)quinoline-4-carboxamide], the 50% inhibitory concentration (IC50) was found to be 2.3 nM.

For the compound `Cc1nn(Cc2ccc(C#N)cc2)c(C)c1NC(=O)c1cc(S(N)(=O)=O)nc2ccccc12` [Example 1573], the IC50 came out at 419 nM.

With `Cc1c(NC(=O)c2cc(C(N)=O)nc3cccc(F)c23)c(C(F)(F)F)nn1Cc1ccc(CC#N)cc1` [Example 1593], the concentration for half-maximal inhibition (IC50) was 1.3 nM.

For the compound `COc1cc(C(=O)Nc2c(C)nn(CC3CNC(=O)O3)c2C)c2ccccc2n1` (stereo not drawn) [Example 1525], the IC50 was 4810 nM.

On to `Cc1nn(Cc2ccc(F)cc2)c(C)c1NC(=O)c1cc(C(F)(F)F)nc2cc(Cl)c(Cl)cc12` [Example 106, 6,7-dichloro-N-[1-(4-fluorobenzyl)-3,5-dimethyl-1H-pyrazol-4-yl]-2-(trifluoromethyl)quinoline-4-carboxamide], for which the IC50 stood at 571 nM.

In the case of `Cc1ccc2nc(C)cc(C(=O)Nc3c(C)nn(Cc4ccc(F)c(F)c4)c3C)c2c1` [Example 64, N-[1-(3,4-difluorobenzyl)-3,5-dimethyl-1H-pyrazol-4-yl]-2,6-dimethylquinoline-4-carboxamide], the IC50 was determined as 130 nM.

For the compound `Cc1c(NC(=O)c2cc(C(N)=O)nc3ccccc23)c(C(F)(F)F)nn1Cc1cccc(C#N)n1` [Example 1690], the half-maximal inhibitory concentration (IC50) worked out at 353 nM.

As for `Cc1nn(Cc2ccc(C(N)=O)cn2)c(C)c1NC(=O)c1cc(C(F)(F)F)nc2ccc(Br)cc12` [Example 1138], the IC50 amounted to 102 nM.

Turning to `Cc1nn(Cc2ccc(C#N)cc2)c(C)c1NC(=O)c1cc(C(F)(F)F)nc2c(Cl)cc(Cl)cc12` [Example 11, 6,8-dichloro-N-[1-(4-cyanobenzyl)-3,5-dimethyl-1H-pyrazol-4-yl]-2-(trifluoromethyl)quinoline-4-carboxamide], the IC50 is 6.6 nM.

With `Cc1nn(Cc2ccc(C(C)C)cc2)c(C)c1NC(=O)c1cc(C(N)=O)nc2ccccc12` [Example 1405], the IC50 amounted to 8.2 nM.

`CC(C)c1c(NC(=O)c2cc(C(N)=O)nc3cc(F)ccc23)c(C(F)(F)F)nn1Cc1ccc(C#N)cc1` [Example 318, N^4-[1-(4-cyanobenzyl)-5-isopropyl-3-(trifluoromethyl)-1H-pyrazol-4-yl]-7-fluoroquinoline-2,4-dicarboxamide]: the IC50 was 352 nM.

For the compound `Cc1nn(Cc2ccc(C(=O)N3CCN(CCO)CC3)cc2)c(C)c1NC(=O)c1cc(C(F)(F)F)nc2ccc(Br)cc12` [Example 1192], the IC50 turned out to be 339 nM.

`Cc1c(NC(=O)c2cc(C(N)=O)nc3ccc(Br)cc23)c(C(F)(F)F)nn1Cc1ccc(F)cc1F` [Example 1442]: the IC50 was determined as 2 nM.

For `Cc1ccccc1Cn1nc(C(F)(F)F)c(NC(=O)c2cc(C(N)=O)nc3ccccc23)c1C` [Example 1494], the IC50 stood at 8.3 nM.

As for `Cc1ccc2nc(C)cc(C(=O)Nc3c(C)nn(Cc4ccc(OC(F)(F)F)cc4)c3C)c2c1` [Example 58, N-{3,5-dimethyl-1-[4-(trifluoromethoxy)benzyl]-1H-pyrazol-4-yl}-2,6-dimethylquinoline-4-carboxamide], the concentration for half-maximal inhibition (IC50) was 77.1 nM.

With `Cc1c(NC(=O)c2cc(C(N)=O)nc3cc(F)ccc23)c(C(F)(F)F)nn1C(C)c1ccccc1` (single isomer, unassigned) [Example 336, (S or R)-7-fluoro-N^4-[5-methyl-1-(1-phenylethyl)-3-(trifluoromethyl)-1H-pyrazol-4-yl]quinoline-2,4-dicarboxamide], the half-inhibitory concentration (IC50) was 150 nM.

With `Cc1nn(Cc2ccc(C(=O)NCCO)cn2)c(C)c1NC(=O)c1cc(C(F)(F)F)nc2ccc(Br)cc12` [Example 1093], the 50% inhibitory concentration (IC50) stood at 38.4 nM.

For the compound `Cc1c(NC(=O)c2cc(C(N)=O)nc3cccc(F)c23)c(C(F)(F)F)nn1Cc1c(F)cccc1F` [Example 1629], the IC50 was 16.2 nM.

The record behind these values is patent publication US20170037028A1 (BAYER PHARMA AKTIENGESELLSCHAFT, priority 2013, published 2017).
